Patent US10273231B2, “Azoline compounds substituted by a condensed ring system” (BASF SE, priority 2014, dated 2019)

Key:
Format in all cases: in vivo
[1] = tested on: Diamond Back Moth (Plutella xylostella); assay: B.1 Diamond back moth leaf-dip test on cabbage leaves; conditions: 3rd instar larvae, recorded 72 hours after treatment, read-out: mortality in comparison with untreated controls
Procedure: B.1 Diamond Back Moth (Plutella xylostella)
The active compound was dissolved at the desired concentration in a mixture of 1:1 (vol:vol) distilled water:aceteone. Surfactant (Kinetic HV) was added at a rate of 0.01% (vol/vol).The test solution was prepared at the day of use.
Leaves of cabbage were dipped in test solution and air-dried. Treated leaves were placed in petri dishes lined with moist filter paper and inoculated with ten 3rd instar larvae. Mortality was recorded 72 hours after treatment. Feeding damages were also recorded using a scale of 0-100%.

[2] = tested on: Green Peach Aphid (Myzus persicae); assay: B.2 Green peach aphid systemic test, artificial diet under membrane in microtiter plates; conditions: 72 h, adult aphids, assessed after 3 days, read-out: mortality in comparison with untreated controls
From the text: B.2 Green Peach Aphid (Myzus persicae)
For evaluating control of green peach aphid (Myzus persicae) through systemic means the test unit consisted of 96-well-microtiter plates containing liquid artificial diet under an artificial membrane.
The compounds were formulated using a solution containing 75% v/v water and 25% v/v DMSO. Different concentrations of formulated compounds were pipetted into the aphid diet, using a custom built pipetter, at two replications.
After application, 5-8 adult aphids were placed on the artificial membrane inside the microtiter plate wells. The aphids were then allowed to suck on the treated aphid diet and incubated at about 23±1° C. and about 50±5% relative humidity for 3 days. Aphid mortality and fecundity was then visually assessed.

[3] = tested on: Vetch Aphid (Megoura viciae); assay: B.3 Vetch aphid test on broad bean leaf disks; conditions: foliar, 120 h, adult aphids, assessed after 5 days, read-out: mortality in comparison with untreated controls
Procedure: B.3 Vetch Aphid (Megoura viciae)
For evaluating control of vetch aphid (Megoura viciae) through contact or systemic means the test unit consisted of 24-well-microtiter plates containing broad bean leaf disks.
The compounds were formulated using a solution containing 75% v/v water and 25% v/v DMSO. Different concentrations of formulated compounds were sprayed onto the leaf disks at 2.5 μl, using a custom built micro atomizer, at two replications.
After application, the leaf disks were air-dried and 5-8 adult aphids placed on the leaf disks inside the microtiter plate wells. The aphids were then allowed to suck on the treated leaf disks and incubated at about 23±10C and about 50±5% relative humidity for 5 days. Aphid mortality and fecundity was then visually assessed.

[4] = tested on: Tobacco Budworm (Heliothis virescens); assay: B.4 Tobacco budworm test, insect diet with eggs in microtiter plates; conditions: 120 h, egg and larval mortality after 5 days, read-out: mortality in comparison with untreated controls
Procedure: B.4 Tobacco Budworm (Heliothis virescens)
For evaluating control of tobacco budworm (Heliothis virescens) the test unit consisted of 96-well-microtiter plates containing an insect diet and 15-25 H. virescens eggs.
The compounds were formulated using a solution containing 75% v/v water and 25% v/v DMSO. Different concentrations of formulated compounds were sprayed onto the insect diet at 10 μl, using a custom built micro atomizer, at two replications.
After application, microtiter plates were incubated at about 28±10C and about 80±5% relative humidity for 5 days. Egg and larval mortality was then visually assessed.

[5] = tested on: Boll Weevil (Anthonomus grandis); assay: B.5 Boll weevil test, insect diet with eggs in microtiter plates; conditions: 120 h, egg and larval mortality after 5 days, read-out: mortality in comparison with untreated controls
Procedure: B.5 Boll Weevil (Anthonomus grandis)
For evaluating control of boll weevil (Anthonomus grandis) the test unit consisted of 96-well-microtiter plates containing an insect diet and 5-10 A. grandis eggs.
(§1) The compounds were formulated using a solution containing 75% v/v water and 25% v/v DMSO. Different concentrations of formulated compounds were sprayed onto the insect diet at 5 μl, using a custom built micro atomizer, at two replications.
After application, microtiter plates were incubated at about 25±1° C. and about 75±5% relative humidity for 5 days. Egg and larval mortality was then visually assessed.

[6] = tested on: Mediterranean Fruitfly (Ceratitis capitata); assay: B.6 Mediterranean fruitfly test, insect diet with eggs in microtiter plates; conditions: 120 h, egg and larval mortality after 5 days, read-out: mortality in comparison with untreated controls
Procedure: B.6 Mediterranean Fruitfly (Ceratitis capitata)
as §1, with “For evaluating control of Mediterranean fruitfly (Ceratitis capitata) the test unit consisted of microtiter plates containing an insect diet and 50-80 C. capitata eggs. The” for “The”
After application, microtiter plates were incubated at about 28±1° C. and about 80+5% relative humidity for 5 days. Egg and larval mortality was then visually assessed.

[7] = tested on: Orchid Thrips (Dichromothrips Corbetti); assay: B.7 Orchid thrips floral-immersion test; conditions: adult thrips, recorded 72 hours after treatment, read-out: mortality in comparison with untreated controls
Procedure: B.7 Orchid Thrips (Dichromothrips Corbetti) Dichromothrips corbettiadults used for bioassay were obtained from a colony maintained continuously under laboratory conditions. For testing purposes, the test compound is diluted in a 1:1 mixture of acetone:water (vol:vol), plus Kinetic HV at a rate of 0.01% v/v.
Thrips potency of each compound was evaluated by using a floral-immersion technique. All petals of individual, intact orchid flowers were dipped into treatment solution and allowed to dry in Petri dishes. Treated petals were placed into individual re-sealable plastic along with about 20 adult thrips. All test arenas were held under continuous light and a temperature of about 28° C. for duration of the assay. After 3 days, the numbers of live thrips were counted on each petal. The percent mortality was recorded 72 hours after treatment.

[8] = tested on: Rice Green Leafhopper (Nephotettix virescens); assay: B.8 Rice green leafhopper test on sprayed rice seedlings; conditions: adults, recorded after 72 hours, read-out: mortality in comparison with untreated controls
Procedure: B.8 Rice Green Leafhopper (Nephotettix virescens)
Rice seedlings were cleaned and washed 24 hours before spraying. The active compounds were formulated in 1:1 acetone:water (vol:vol), and 0.01% vol/vol surfactant (Kinetic HV) was added. Potted rice seedlings were sprayed with 5-6 ml test solution, air dried, covered with Mylar cages cages and inoculated with 10 adults. Treated rice plants were kept at about 28-29° C. and relative humidity of about 50-60%. Percent mortality was recorded after 72 hours.

[9] = tested on: Red Spider Mite (Tetranychus kanzawai); assay: B.9 Red spider mite test on sprayed cowpea beans; conditions: assessed 72 hours after treatment, read-out: mortality in comparison with untreated controls
Procedure: B.9 Red Spider Mite (Tetranychus kanzawai)
The active compound was dissolved at the desired concentration in a mixture of 1:1 (vol:vol) distilled water:acetone. Add surfactant (Kinetic HV) was added at a rate of 0.01% (vol/vol).The test solution was prepared at the day of use.
Potted cowpea beans of 4-5 days of age were cleaned with tap water and sprayed with 1-2 ml of the test solution using air driven hand atomizer. The treated plants were allowed to air dry and afterwards inoculated with 30 or more mites by clipping a cassava leaf section from rearing population. Treated plants were placed inside a holding room at about 25-27° C. and about 50-60% relative humidity. Percent mortality was assessed 72 hours after treatment.

[10] = tested on: Green Soldier Stink Bug (Nezara viridula); assay: B.11 Green soldier stink bug test on soybean pods in Petri dishes; conditions: 120 h, late 3rd instar, recorded after 5 days, read-out: mortality in comparison with untreated controls
Procedure: B.11 Green Soldier Stink Bug (Nezara viridula)
(§2) The active compound was dissolved at the desired concentration in a mixture of 1:1 (vol:vol) distilled water:acetone. Surfactant (Kinetic HV) was added at a rate of 0.01% (vol/vol).The test solution was prepared at the day of use.
Soybean pods were placed in glass Petri dishes lined with moist filter paper and inoculated with ten late 3rd instar N. viridula. Using a hand atomizer, approximately 2 ml solution is sprayed into each Petri dish. Assay arenas were kept at about 25° C. Percent mortality was recorded after 5 days.

[11] = tested on: Southern Armyworm (Spodoptera eridania); assay: B.10 Southern armyworm test on sprayed lima bean plants; conditions: 96 h, larvae, assessed 4 days after treatment, read-out: mortality in comparison with untreated controls
Procedure: B.10 Southern Armyworm (Spodoptera eridania)
The active compounds were formulated in cyclohexanone as a 10,000 ppm solution supplied in tubes. The tubes were inserted into an automated electrostatic sprayer equipped with an atomizing nozzle and they served as stock solutions for which lower dilutions were made in 50% acetone:50% water (v/v). A nonionic surfactant (Kinetic®) was included in the solution at a volume of 0.01% (v/v).
Lima bean plants (variety Sieva) were grown 2 plants to a pot and selected for treatment at the 1st true leaf stage. Test solutions were sprayed onto the foliage by an automated electrostatic plant sprayer equipped with an atomizing spray nozzle. The plants were dried in the sprayer fume hood and then removed from the sprayer. Each pot was placed into perforated plastic bags with a zip closure. About 10 to 11 armyworm larvae were placed into the bag and the bags zipped closed. Test plants were maintained in a growth room at about 250C and about 20-40% relative humidity for 4 days, avoiding direct exposure to fluorescent light (24 hour photoperiod) to prevent trapping of heat inside the bags. Mortality and reduced feeding were assessed 4 days after treatment, compared to untreated control plants.

[12] = tested on: Neotropical Brown Stink Bug (Euschistus heros); assay: B.12 Neotropical brown stink bug test on soybean pods in plastic cups; conditions: 120 h, adult stage, recorded after 5 days, read-out: mortality in comparison with untreated controls
Procedure: B.12 Neotropical Brown Stink Bug (Euschistus heros)
as §2
Soybean pods were placed in microwavable plastic cups and inoculated with ten adult stage E. heros. Using a hand atomizer, approximately 1 ml solution is sprayed into each cup, insects and food present. A water source was provided (cotton wick with water). Each treatment was replicated 2-fold. Assay arenas were kept at about 25° C. Percent mortality was recorded after 5 days.

[13] = tested on: Brown Marmorated Stink Bug (Halyomorpha halys); assay: B.13 Brown marmorated stink bug test on peanuts and soybean seeds in plastic cups; conditions: 120 h, adult stage, recorded after 5 days, read-out: mortality in comparison with untreated controls
Procedure: B.13 Brown Marmorated Stink Bug (Halyomorpha halys)
as §2
Row peanuts and soybean seeds were placed into microwavable plastic cups and inoculated with five adult stage H. halys. Using a hand atomizer, approximately 1 ml solution is sprayed into each cup, insects and food present. A water source was provided (cotton wick with water). Each treatment is replicated 4-fold. Assay arenas are kept at about 25° C. Percent mortality was recorded after 5 days.

CCCC(=O)NCc1ccc(C2=NOC(c3cc(Cl)c(F)c(Cl)c3)(C(F)(F)F)C2)c2c1OCC2 (centres unmarked) [Compound I-16, N-[[4-[5-(3,5-dichloro-4-fluoro-phenyl)-5-(trifluoromethyl)-4H-isoxazol-3-yl]-2,3-dihydrobenzofuran-7-yl]methyl]butanamide]
≥ 75%: mortality at 300 ppm [1] | mortality at 2500 ppm [2] | mortality at 2500 ppm [3] | mortality at 2500 ppm [4] | mortality at 2500 ppm [5] | mortality at 2500 ppm [6] | mortality at 300 ppm [7] | mortality at 300 ppm [8] | mortality at 300 ppm [9] | mortality at 300 ppm [10]

O=C(NC1CS(=O)(=O)C1)c1ccc(C2=NOC(c3cc(Cl)c(F)c(Cl)c3)(C(F)(F)F)C2)c2c1SCC2 (centres unmarked) [Compound I-7, 4-[5-(3,5-dichloro-4-fluoro-phenyl)-5-(trifluoromethyl)-4H-isoxazol-3-yl]-N-(1,1-dioxothietan-3-yl)-2,3-dihydrobenzothiophene-7-carboxamide]
≥ 75%: mortality at 300 ppm [1] | mortality at 2500 ppm [2] | mortality at 2500 ppm [3] | mortality at 2500 ppm [4] | mortality at 2500 ppm [5] | mortality at 2500 ppm [6] | mortality at 300 ppm [7] | mortality at 300 ppm [8] | mortality at 300 ppm [9] | mortality at 10 ppm [11] | mortality at 300 ppm [10] | mortality at 100 ppm [12] | mortality at 100 ppm [13]
